What was measured:
HepG2 = assay: apoptosis, AnnexinV-FITC/PI flow cytometry; format: cell-based; details: 24 h, dosage not given
Source text: (§1) The tumor cells growing in the logarithmic phase were digested with trypsin, collected by centrifugation to prepare a suspension, the cells were counted and adjusted to a certain concentration (6×10^5 cells per mL for AGS, T47D, Caco2, BCPAP, GES, HUVEC; 5×10^5 cells per mL for HepG2, MDA-MB-231, BGC-823, A549, PC3, L02; 3×10^5 cells per mL for 143B, HOS, U2, SGC-7901, Hela, BV-2; 1.8×10^6 cells per mL for WI-38), and the cells at a certain concentration were transferred to a 6-well plate at a concentration of 1 mL per well. The cells were cultured in a cell culture incubator for 12 h to allow the cells to adhere to the wall. The corresponding dosages of a quercetin 3,3′-dimethyl ether solution were added (the dosage of osteosarcoma cells was 143B: 4 mg/L, HOS: 4 mg/L, U2: 10 mg/L; the dosage of breast cancer cells was MDA-MB-231: 2 mg/L, T47D: 3 mg/L; the dosage of gastric cancer cells was SGC7901: 6 mg/L, BGC823: 5 mg/L, AGS: 3 mg/L; the dosage of cervical cancer Hela cells was 2 mg/L; the dosage of lung cancer cell A549 was 3 mg/L; the dosage of intestinal cancer cells Caco2 was 4 mg/L; the dosage of mouse glioma BV2 was 4 mg/L; the dosage of human prostate cancer cells PC3 was 6 mg/L; and the dosage of human thyroid cancer cells BCPAP was 2 mg/L). While DMSO was used as a solvent control, and then incubated for 24 h. After acting for 24 h, the cells were collected by centrifugation at 300 g, 4° C. for 5 min, a supernatant was discarded, and the cells were washed twice with pre-cooled PBS, each time with centrifugation at 300 g, 4° C. for 5 min. (1˜5)×10^5 cells were collected and resuspended in […] 1× BindingBuffer. 5 μl of AnnexinV-FITC and 5 μl of PI were added, and mixed well gently. The cells were reacted at room temperature for 10 min in the dark. 400 μl of 1× Binding Buffer was added, mixed well, and the samples were detected by flow cytometry within 1 h. The analysis was conducted according to a standard detection procedure of flow cytometry, at an excitation wavelength of 488 nm, and 20,000 cells were counted, and obtained results were analyzed with cell cycle fitting software ModFit.

[1] = tested on: breast cancer cells MDA-MB-231; assay: apoptosis, AnnexinV-FITC/PI flow cytometry; format: cell-based; details: 2 mg/L, 24 h
Source text: as §1

breast cancer cells T47D = assay: apoptosis, AnnexinV-FITC/PI flow cytometry; format: cell-based; details: 3 mg/L, 24 h
Source text: as §1

[2] = tested on: cervical cancer Hela cells; assay: apoptosis, AnnexinV-FITC/PI flow cytometry; format: cell-based; details: 2 mg/L, 24 h
Source text: as §1

gastric cancer cells AGS = assay: apoptosis, AnnexinV-FITC/PI flow cytometry; format: cell-based; details: 3 mg/L, 24 h
Source text: as §1

[3] = tested on: gastric cancer cells BGC-823; assay: apoptosis, AnnexinV-FITC/PI flow cytometry; format: cell-based; details: 5 mg/L, 24 h
Source text: as §1

[4] = tested on: human prostate cancer cells PC3; assay: apoptosis, AnnexinV-FITC/PI flow cytometry; format: cell-based; details: 6 mg/L, 24 h
Source text: as §1

[5] = tested on: intestinal cancer cells Caco2; assay: apoptosis, AnnexinV-FITC/PI flow cytometry; format: cell-based; details: 4 mg/L, 24 h
Source text: as §1

lung cancer cell A549 = assay: apoptosis, AnnexinV-FITC/PI flow cytometry; format: cell-based; details: 3 mg/L, 24 h
Source text: as §1

mouse glioma BV2 = assay: apoptosis, AnnexinV-FITC/PI flow cytometry; format: cell-based; details: BV-2; 4 mg/L; 24 h
Source text: as §1

osteosarcoma cells 143B = assay: apoptosis, AnnexinV-FITC/PI flow cytometry; format: cell-based; details: 4 mg/L, 24 h
Source text: as §1

osteosarcoma cells HOS = assay: apoptosis, AnnexinV-FITC/PI flow cytometry; format: cell-based; details: 4 mg/L, 24 h
Source text: as §1

[6] = tested on: HepG2 transplanted tumors; assay: proliferation of HepG2 transplanted tumors in nude mice in vivo; design: species or system BALB/c nude mice; details: 50 mg/kg bw·d intraperitoneal
Method: BALB/c nude mice (5 to 6 weeks old), weighing 19 g to 22 g, were purchased from Shanghai Experimental Animal Center, Chinese Academy of Sciences. HepG2 cells were collected in a serum-free DMEM medium to make a cell suspension, and then the cell suspension was injected into an underarm area of each mouse, approximately 2.0×10^6 cells, one site per mouse. All mice were bred in the Experimental Animal Center of Zhejiang University, under the environment of 23° C. to 25° C., humidity 50% to 60%, and cycle of 12 h light illumination/dark 12 h. After tumor formation, the mice were randomly divided into 3 groups with 7 mice in each group. The model group was given saline by intraperitoneal injection; the positive drug group was given tegafur at 10 mg/kg bw·d by intraperitoneal injection; the treatment group was intraperitoneally injected with the quercetin 3,3′-dimethyl ether at 50 mg/kg bw·d. According to the change of tumor volume, after the tumor formed, intraperitoneal injection was conducted every 1 d to 2 d, the tumor volume was measured, and the body weight of the mice was weighed. When there was a significant difference in tumor volume between different treatment groups, the mice were sacrificed by cervical dislocation, and the tumor tissue was carefully peeled off, weighed, and calculated. The formulas were: tumor formation rate (%)=(number of tumor-forming mice in treatment group/number of tumor-forming mice in inoculation group)×100; tumor inhibition rate (%)=(average tumor weight in control group (g)−average tumor weight in administration group (g))/average tumor weight in control group (g)×100. Serum, liver, spleen, and kidney were collected and weighed.

## COc1cc(-c2oc3cc(O)cc(O)c3c(=O)c2OC)ccc1O [Quercetin 3,3′-dimethyl ether, quercetin 3,3′-dimethyl ether]
HepG2
  Treatment apoptosis ratio %: 32.36 ± 5.26 %
[1]
  Treatment apoptosis ratio %: 29.85 ± 4.49 %
Breast cancer cells T47D
  Treatment apoptosis ratio %: 16.98 ± 1.37 %
[2]
  Treatment apoptosis ratio %: 20.05 ± 4.31 %
Gastric cancer cells AGS
  Treatment apoptosis ratio %: 29.47 ± 2.25 %
[3]
  Treatment apoptosis ratio %: 26.68 ± 3.45 %
[4]
  Treatment apoptosis ratio %: 21.13 ± 5.11 %
[5]
  Treatment apoptosis ratio %: 22.81 ± 3.72 *^ %
Lung cancer cell A549
  Treatment apoptosis ratio %: 20.28 ± 3.23 %
Mouse glioma BV2
  Treatment apoptosis ratio %: 18.65 ± 0.39 %
Osteosarcoma cells 143B
  Treatment apoptosis ratio %: 24.72 ± 2.82 %
Osteosarcoma cells HOS
  Treatment apoptosis ratio %: 23.09 ± 4.36 %
[6]
  tumor weight, lower than that of the control group: 52.19%
[6]; day 24, 10 injections, HepG2 nude mice
  tumor volume: 284.19±85.47 mm^3
[6]; tumor peeled off at sacrifice
  tumor weight: 194.57 ± 75.45 mg

Source: patent US20240173289A1, “USE OF OXYMETHYL-MODIFIED DERIVATIVE OF QUERCETIN IN PREPARATION OF DRUG FOR INHIBITING TUMOR CELL PROLIFERATION” (ZHEJIANG UNIVERSITY, priority 2021, published 2024)
